Measured values reported in patent US7902224B2, “Tetrahydro-naphthalene derivatives as glucocorticoid receptor modulators” (Glaxo Group Limited, priority 2004, dated 2011).

Experiments:
[1] = tested on: MMTV driven gene expression; experiment: Glucocorticoid mediated transactivation of MMTV driven gene expression (luciferase reporter); type: cell-based, Human; conditions: A549 or MG63 cells, 6 hr incubation
Excerpt: Glucocorticoid Mediated Transactivation of MMTV Driven Gene Expression
Human A549 lung epithelial cells or human MG63 osteosarcoma were engineered to contain a renialla luciferase gene under the control of the distal region of the LTR from the mouse mammary tumour virus as previously described (Austin, R. H., Maschera, B., Walker, A., Fairbairn, L., Meldrum, E., Farrow, S. and Uings, I. J. Mometasone furoate is a less specific glucocorticoid than fluticasone propionate. European Respiratory Journal 2002 20 1386-1392).
Compounds were solvated and diluted in DMSO, and transferred directly into assay plates such that the final concentration of DMSO was 0.7%. Following the addition of cells (40K per well), plates were incubated for 6 hr. Luciferase activity was determined using the Firelight kit (Packard, Pangbourne, UK).

NFkB activity = experiment: Glucocorticoid mediated transrepression of NFkB activity (A549 ELAM promoter alkaline phosphatase reporter, TNFα stimulated); type: cell-based; conditions: A549 cells, 3 ng/ml human recombinant TNFα, 16 hours; read-out: pIC50 NFkB assay (converted)
Excerpt: Glucocorticoid mediated Transrepression of NFkB activity.
Human A549 lung epithelial cells were engineered to contain a secreted placental alkaline phosphatase gene under the control of the distal region of the NFkB dependent ELAM promoter as previously described in Ray, K. P., Farrow, S., Daly, M., Talabot, F. and Searle, N. “Induction of the E-selectin promoter by interleukin 1 and tumour necrosis factor alpha, and inhibition by glucocorticoids” Biochemical Journal. 1997 328 707-15.
Compounds were solvated and diluted in DMSO, and transferred directly into assay plates such that the final concentration of DMSO was 0.7%. Following the addition of cells (40K per well), plates were incubated for 1 hr prior to the addition of 3 ng/ml human recombinant TNFα. Following continued incubation for 16 hours, alkaline phosphatase activity was determined by measuring the change in optical density at 405 nm with time following the addition of 0.7 volumes of assay buffer (1 mg/ml p-nitrophenylphosphate dissolved in 1 M diethanolamine, 0.28M NaCl, 0.5 mM MgCl2).

glucocorticoid receptor = target: T1, glucocorticoid receptor (Homo sapiens, UniProt P04150); experiment: Glucocorticoid receptor binding assay (fluorescence polarisation competition); conditions: displacement of fluorescent glucocorticoid, 22° C., 2 hours; read-out: pIC50 glucocorticoid receptor binding assay (converted)
T1 construct: purchased Pan Vera (Madison, Wis., USA)
T1 sequence (P04150 1-777): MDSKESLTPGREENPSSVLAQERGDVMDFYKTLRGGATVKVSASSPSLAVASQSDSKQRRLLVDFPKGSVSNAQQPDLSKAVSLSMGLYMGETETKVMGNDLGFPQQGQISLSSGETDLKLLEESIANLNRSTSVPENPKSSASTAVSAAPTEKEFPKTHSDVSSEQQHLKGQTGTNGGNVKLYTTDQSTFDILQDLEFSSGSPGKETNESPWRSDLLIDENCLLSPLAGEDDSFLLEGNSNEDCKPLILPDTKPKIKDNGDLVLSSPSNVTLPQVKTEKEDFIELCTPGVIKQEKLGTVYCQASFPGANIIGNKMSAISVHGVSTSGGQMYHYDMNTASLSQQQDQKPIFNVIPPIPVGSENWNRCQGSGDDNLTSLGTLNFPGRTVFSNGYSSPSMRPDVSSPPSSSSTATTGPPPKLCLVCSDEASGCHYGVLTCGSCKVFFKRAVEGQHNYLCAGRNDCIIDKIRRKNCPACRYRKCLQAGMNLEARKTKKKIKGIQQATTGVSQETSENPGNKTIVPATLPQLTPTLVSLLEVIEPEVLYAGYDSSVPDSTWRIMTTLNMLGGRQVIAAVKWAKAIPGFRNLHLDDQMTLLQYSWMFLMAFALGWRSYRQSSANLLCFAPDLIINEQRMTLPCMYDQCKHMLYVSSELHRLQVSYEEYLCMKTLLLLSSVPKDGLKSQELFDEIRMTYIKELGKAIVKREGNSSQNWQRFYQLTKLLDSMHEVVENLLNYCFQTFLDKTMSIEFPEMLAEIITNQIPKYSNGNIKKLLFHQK
Protocol: Glucocorticoid Receptor Binding Assay
The ability of compounds to bind to the glucocorticoid receptor was determined by assessing their ability to compete with fluorescent-labelled glucocortioid using a kit supplied by Pan Vera (Madison, Wis., USA) or using in house reagents. Compounds were solvated and diluted in DMSO, and transferred directly into assay plates. Fluorescent glucocorticoid and partially purified glucocorticoid receptor with a stabilisation peptide were added to the plates and incubated at 22° C. for 2 hours in the dark. Binding of the compound was assessed by analysing the displacement of fluorescent ligand by measuring the decrease in fluorescence polarisation signal from the mixture.

| Structure (SMILES) | efficacy in the MMTV transactivation assay compared to the NFkB assay [1] | IC50 (NFkB activity) | IC50 (glucocorticoid receptor) |
| --- | --- | --- | --- |
| CCC1(CC(O)(CNc2cccc3nc(C)ccc23)C(F)(F)F)CCCc2ccccc21 (single isomer, unassigned) [Example 5-D2E1, 3-(1-Ethyl-1,2,3,4-tetrahydro-1-naphthalenyl)-1,1,1-trifluoro-2-[[(2-methyl-5-quinolinyl)amino]methyl]-2-propanol] | reduced efficacy | – | – |
| Cc1ccc2c(NCC(O)(CC3(C)CCCc4ccccc43)C(F)(F)F)cccc2n1 (single isomer, unassigned) [Example 2-D2E2, 1,1,1-Trifluoro-3-[(2-methyl-5-quinolinyl)amino]-2-[(1-methyl-1,2,3,4-tetrahydro-1-naphthalenyl)methyl]-2-propanol] | reduced efficacy | – | – |
| CCC1(CC(O)(CNc2cccc3cnccc23)C(F)(F)F)CCCc2ccccc21 (single isomer, unassigned) [Example 4-D1E2, 3-(1-Ethyl-1,2,3,4-tetrahydro-1-naphthalenyl)-1,1,1-trifluoro-2-[(5-isoquinolinylamino)methyl]-2-propanol] | reduced efficacy | < 31.6 nM | – |
| CCC1(CC(O)(CNc2cccc3nc(C)ccc23)C(F)(F)F)CCCc2ccccc21 (single isomer, unassigned) [Example 5-D2, 3-(1-Ethyl-1,2,3,4-tetrahydro-1-naphthalenyl)-1,1,1-trifluoro-2-[[(2-methyl-5-quinolinyl)amino]methyl]-2-propanol] | reduced efficacy | – | – |
| CCC1(CC(O)(CNc2cccc3nc(C)ccc23)C(F)(F)F)CCCc2ccccc21 (single isomer, unassigned) [Example 5-D1, 3-(1-Ethyl-1,2,3,4-tetrahydro-1-naphthalenyl)-1,1,1-trifluoro-2-[[(2-methyl-5-quinolinyl)amino]methyl]-2-propanol] | reduced efficacy | < 31.6 nM | < 100 nM |
| Cc1ccc2c(NCC(O)(CC3(C)CCCc4ccccc43)C(F)(F)F)cccc2n1 (single isomer, unassigned) [Example 2-D2E1, 1,1,1-Trifluoro-3-[(2-methyl-5-quinolinyl)amino]-2-[(1-methyl-1,2,3,4-tetrahydro-1-naphthalenyl)methyl]-2-propanol] | reduced efficacy | – | – |
| CCC1(CC(O)(CNc2cccc3nc(C)ccc23)C(F)(F)F)CCCc2ccccc21 (single isomer, unassigned) [Example 5-D1E1, 3-(1-Ethyl-1,2,3,4-tetrahydro-1-naphthalenyl)-1,1,1-trifluoro-2-[[(2-methyl-5-quinolinyl)amino]methyl]-2-propanol] | reduced efficacy | – | – |
| CC1(CC(O)(CNc2cccc3ncccc23)C(F)(F)F)CCCc2ccccc21 (single isomer, unassigned) [Example 1-D1E1, 1,1,1-Trifluoro-3-(1-methyl-1,2,3,4-tetrahydro-1-naphthalenyl)-2-[(5-guinolinylamino)methyl]-2-propanol] | reduced efficacy | < 31.6 nM | < 100 nM |
| Cc1ccc2c(NCC(O)(CC3(C)CCCc4ccccc43)C(F)(F)F)cccc2n1 (single isomer, unassigned) [Example 2-D1, 1,1,1-Trifluoro-3-[(2-methyl-5-quinolinyl)amino]-2-[(1-methyl-1,2,3,4-tetrahydro-1-naphthalenyl)methyl]-2-propanol] | reduced efficacy | < 31.6 nM | < 100 nM |
| CCC1(CC(O)(CNc2cccc3ncccc23)C(F)(F)F)CCCc2ccccc21 (stereo not shown) [Example 6-D1, 3-(1-Ethyl-1,2,3,4-tetrahydro-1-naphthalenyl)-1,1,1-trifluoro-2-[(5-guinolinylamino)methyl]-2-propanol] | reduced efficacy | < 31.6 nM | < 100 nM |
| Cc1ccc2c(NCC(O)(CC3(C)CCCc4ccccc43)C(F)(F)F)cccc2n1 (single isomer, unassigned) [Example 2-D2, 1,1,1-Trifluoro-3-[(2-methyl-5-quinolinyl)amino]-2-[(1-methyl-1,2,3,4-tetrahydro-1-naphthalenyl)methyl]-2-propanol] | reduced efficacy | – | – |
| Cc1ccc2c(NCC(O)(CC3(C)CCCc4ccccc43)C(F)(F)F)cccc2n1 (single isomer, unassigned) [Example 2-D1E1, 1,1,1-Trifluoro-3-[(2-methyl-5-quinolinyl)amino]-2-[(1-methyl-1,2,3,4-tetrahydro-1-naphthalenyl)methyl]-2-propanol] | reduced efficacy | – | – |
| CC1(CC(O)(CNc2cccc3cnccc23)C(F)(F)F)CCCc2ccccc21 (stereo not shown) [Example 3-D1, 1,1,1-Trifluoro-3-(5-isoguinolinylamino)-2-[(1-methyl-1,2,3,4-tetrahydro-1-naphthalenyl)methyl]-2-propanol] | reduced efficacy | < 31.6 nM | < 100 nM |
| CC1(CC(O)(CNc2cccc3cnccc23)C(F)(F)F)CCCc2ccccc21 (stereo not shown) [Example 3-D2, 1,1,1-Trifluoro-3-(5-isoguinolinylamino)-2-[(1-methyl-1,2,3,4-tetrahydro-1-naphthalenyl)methyl]-2-propanol] | reduced efficacy | – | – |
| CC1(CC(O)(CNc2cccc3ncccc23)C(F)(F)F)CCCc2ccccc21 (stereo not shown) [Example 1-D1, 1,1,1-Trifluoro-3-(1-methyl-1,2,3,4-tetrahydro-1-naphthalenyl)-2-[(5-guinolinylamino)methyl]-2-propanol] | reduced efficacy | < 31.6 nM | < 100 nM |
| CC1(CC(O)(CNc2cccc3cnccc23)C(F)(F)F)CCCc2ccccc21 (single isomer, unassigned) [Example 3-D1E2, 1,1,1-Trifluoro-3-(5-isoguinolinylamino)-2-[(1-methyl-1,2,3,4-tetrahydro-1-naphthalenyl)methyl]-2-propanol] | reduced efficacy | < 31.6 nM | – |
| CCC1(CC(O)(CNc2cccc3cnccc23)C(F)(F)F)CCCc2ccccc21 (single isomer, unassigned) [Example 4-D1, 3-(1-Ethyl-1,2,3,4-tetrahydro-1-naphthalenyl)-1,1,1-trifluoro-2-[(5-isoquinolinylamino)methyl]-2-propanol] | reduced efficacy | – | < 100 nM |
| CC1(CC(O)(CNc2cccc3cnccc23)C(F)(F)F)CCCc2ccccc21 (single isomer, unassigned) [Example 3-D2E1, 1,1,1-Trifluoro-3-(5-isoguinolinylamino)-2-[(1-methyl-1,2,3,4-tetrahydro-1-naphthalenyl)methyl]-2-propanol] | reduced efficacy | – | < 100 nM |
